Measurements reported in patent US11110139B2, “Application of anthocyanin extract in preparing pharmaceutical composition for preventing and treating cardiac toxicity induced by anthracyclines and pharmaceutical composition” (Northwest Institute of Plateau Biology, Chinese Academy of …, priority 2017, dated 2021).

Columns and labels:
[1] = tested on: rat cardiomyocyte cell line H9c2; format: cell-based; conditions: 24 h, 20 μM
Method: A rat cardiomyocyte cell line H9c2: a DMEM culture medium (containing 10% new-born calf serum, 2 mM glutamate and 1% streptomycin/penicillin) was employed to culture, and a culture condition was an aseptic environment at 37° C. and 5% CO2. The culture medium was replaced once every 2-3 d, and when cells were cultured for 24 h and 80% were aggregated, was transferred to a 96-well plate with a cell density being 1×10^5/well; after the cells were continued to culture for 24 h, a medicament treatment was performed. A control group, a model group (containing 20 μM DOX), and a nitraria anthocyanin extract experimental group (containing 20 μM DOX and 5-500 μg/mL nitraria anthocyanin extract) were respectively provided, and after they were treated for 24 h, a cell viability was detected by an MTT method.

[2] = tested on: bcl-2, bax, caspase-3 and caspase-9 protein expression in H9c2; test: Western blot of bcl-2, bax, caspase-3 and caspase-9 in H9c2; format: cell-based, rat; conditions: H9c2, 20 μM DOX alone, 24 h
Method: A rat cardiomyocyte cell line H9c2: a DMEM culture medium (containing 10% new-born calf serum, 2 mM glutamate and 1% streptomycin/penicillin) was employed to culture, and a culture condition was an aseptic environment at 37° C. and 5% CO2. The culture medium was replaced once every 2-3 d, and when cells were cultured for 24 h and 80% were aggregated, a medicament treatment was performed. A control group, a model group (containing 20 μM DOX), and a nitraria anthocyanin extract experimental group (containing 20 μM DOX and 5-500 μg/mL nitraria anthocyanin extract) were respectively provided, and after they were treated for 24 h, the cells were scrapped, and were collected by centrifugation; and after being cleaned by a phosphate buffer, the cells were resuspended in a lysis buffer. After cell debrises were removed by the centrifugation, a supernatant was collected and a soluble protein concentration was determined using a BCA protein concentration assay kit. A protein solute, after being separated by 12% SDS-PAGE electrophoresis, was transferred to a PVDF membrane and thereafter was labeled by bcl-2, bax, caspase-3 and caspase-9 antibodies. An optical density of a band was determined by Quantity One software (v4.62, American Bio-Rad Company). And αβ-tubulin was taken as a protein sample loading internal reference substance.

[3] = tested on: rat cardiomyocyte cell line H9c2; format: cell-based; conditions: 24 h, 20 μM; remark: listed apart in the source
Method: (§1) A rat cardiomyocyte cell line H9c2: a DMEM culture medium (containing 10% new-born calf serum, 2 mM glutamate and 1% streptomycin/penicillin) was employed to culture, and a culture condition was an aseptic environment at 37° C. and 5% CO2. The culture medium was replaced once every 2-3 d, and when cells were cultured for 24 h and 80% were aggregated, a medicament treatment was performed. A control group, a model group (containing 20 μM DOX), and a nitraria anthocyanin extract experimental group (containing 20 μM DOX and 5-500 μg/mL nitraria anthocyanin extract) were respectively provided, after they were treated for 24 h, an extracellular fluid was collected, and LDH and CK levels in the extracellular fluid were detected by employing LDH and CK array kits.

[4] = tested on: rat cardiomyocyte cell line H9c2; test: Aggregated level of cardiomyocyte ROS (DCFH-DA, flow cytometer); format: cell-based; conditions: H9c2, 20 μM DOX alone, 24 h
Method: A rat cardiomyocyte cell line H9c2: a DMEM culture medium (containing 10% new-born calf serum, 2 mM glutamate and 1% streptomycin/penicillin) was employed to culture, and a culture condition was an aseptic environment at 37° C. and 5% CO2. The culture medium was replaced once every 2-3 d, and when cells were cultured for 24 h and 80% were aggregated, a medicament treatment was performed. A control group, a model group (containing 20 μM DOX), and a nitraria anthocyanin extract experimental group (containing 20 μM DOX and 5-500 μg/mL nitraria anthocyanin extract) were respectively provided, and after they were treated for 24 h, 2′, 7′-dichlorodihydro-fluorescein diacetate (DCFH-DA, 20 μM) was added to incubate for 20 min at 37° C., and a flow cytometer was employed to detect an aggregated level of cardiomyocyte ROS. According to experimental results (as shown in FIG. 8), after the 20 μM DOX is treated for 24 h, the aggregated level of the cardiomyocyte ROS is increased to 3.5 times of a normal cell; and after the DOX and the 5-500 μg/mL nitraria anthocyanin extract are co-treated for 24 h, the aggregated level of the cardiomyocyte ROS only is 2.16-3.29 times of the normal cell.

[5] = tested on: rat cardiomyocyte cell line H9c2; format: cell-based; conditions: 24 h, 20 μM; remark: listed apart in the source
Method: as §1, with “C02.” for “CO2.”, “provided, and” for “provided,”, “a change in cardiomyocyte apoptosis” for “an extracellular fluid”, “was” for “was collected, and LDH and CK levels in the extracellular fluid were”, “by a flow cytometer according to operating instructions of a kit by” for “by”, “an FITC-Annexin V/propidium iodide (PI) fluorescence double staining method.” for “LDH and CK array kits.”

Bax/Bcl-2 protein expression ratio versus normal cell [2]: increased to two times of a normal cell
bax protein expression [2]: significantly increased
bcl-2 protein expression [2]: significantly reduced
protein expression of cut and activated caspase-3 [2]: significantly increased
protein expression of cut and activated caspase-9 [2]: significantly increased
CK level in the extracellular fluid, times of a normal cell [3]: 2.87 times
LDH level in the extracellular fluid, times of a normal cell [3]: 2.65 times
aggregated level of cardiomyocyte ROS, times of a normal cell [4]: 3.5 times
number of FITC-Annexin V positive cells [5]: 1.49%
Compound: COc1cccc2c1C(=O)c1c(O)c3c(c(O)c1C2=O)C[C@@](O)(C(=O)CO)C[C@@H]3O[C@H]1C[C@H](N)[C@H](O)[C@H](C)O1 [DOX, doxorubicin]
cell viability, of a normal cell [1]: 62.12%
